Results as given in ChEMBL document CHEMBL4321812, “Structure-based rational design of staurosporine-based fluorescent probe with broad-ranging kinase affinity for kinase panel application” (Bioorg Med Chem Lett, 2019).

Key:
[1] = target: Protein kinase C theta type (Homo sapiens, UniProt Q04759); experiment: Binding affinity to recombinant full-length N-terminal His-GST-tagged PRKCQ (unknown origin) expressed in baculovirus infected Sf9 insect cells incubated for 1 hr by TR-FRET assay
[2] = target: Cyclin-C/Cyclin-dependent kinase 19 (Homo sapiens, UniProt Q9BWU1); experiment: Binding affinity to recombinant human full length N-terminal GST-tagged CDK19 co-expressed with N-terminal GST-tagged CyclinC expressed in baculovirus expression system using RNA polymerase peptide as substrate incubated for 1 hr by TR-FRET assay
[3] = target: Glycogen synthase kinase-3 alpha (Homo sapiens, UniProt P49840); experiment: Binding affinity to recombinant full-length N-terminal His-GST-tagged GSK3A (unknown origin) expressed in baculovirus infected Sf9 insect cells incubated for 1 hr by TR-FRET assay
[4] = target: RAC-gamma serine/threonine-protein kinase (Homo sapiens, UniProt Q9Y243); experiment: Binding affinity to recombinant full-length N-terminal His-FLAG-GST-tagged AKT3 (unknown origin) (108 to 479 residues) expressed in baculovirus infected Sf9 insect cells incubated for 1 hr by TR-FRET assay
[5] = target: Mitogen-activated protein kinase kinase kinase kinase 1 (Homo sapiens, UniProt Q92918); experiment: Binding affinity to recombinant N-terminal His-FLAG-GST-tagged MAP4K1 (unknown origin) (1 to 346 residues) expressed in baculovirus infected Sf9 insect cells incubated for 1 hr by TR-FRET assay
[6] = target: 3-phosphoinositide-dependent protein kinase 1 (Homo sapiens, UniProt O15530); experiment: Binding affinity to recombinant full-length N-terminal His-FLAG-GST-tagged PDPK1 (unknown origin) expressed in baculovirus infected Sf9 insect cells incubated for 1 hr by TR-FRET assay
[7] = target: Serine/threonine-protein kinase ULK3 (Homo sapiens, UniProt Q6PHR2); experiment: Binding affinity to recombinant full-length N-terminal His-FLAG-GST-tagged ULK3 (unknown origin) expressed in baculovirus infected Sf9 insect cells incubated for 1 hr by TR-FRET assay
[8] = target: NUAK family SNF1-like kinase 1 (Homo sapiens, UniProt O60285); experiment: Binding affinity to recombinant full-length N-terminal His-FLAG-GST-tagged NUAK1 (unknown origin) expressed in baculovirus infected Sf9 insect cells incubated for 1 hr by TR-FRET assay
[9] = target: Tyrosine-protein kinase JAK3 (Homo sapiens, UniProt P52333); experiment: Binding affinity to recombinant full-length N-terminal His-FLAG-GST-tagged JAK3 (unknown origin) (795 to 1124 residues) expressed in baculovirus infected Sf9 insect cells incubated for 1 hr by TR-FRET assay
[10] = target: Dual specificity protein kinase CLK4 (Homo sapiens, UniProt Q9HAZ1); experiment: Binding affinity to recombinant human full length N-terminal GST-tagged CLK4 expressed in baculovirus expression system incubated for 1 hr by TR-FRET assay
[11] = target: Protein kinase C epsilon type (Homo sapiens, UniProt Q02156); experiment: Binding affinity to recombinant human full length N-terminal GST-tagged PRKCE expressed in baculovirus expression system using PKC peptide as substrate incubated for 1 hr by TR-FRET assay
[12] = target: Epithelial discoidin domain-containing receptor 1 (Homo sapiens, UniProt Q08345); experiment: Binding affinity to recombinant N-terminal His-FLAG-GST-tagged DDR1 (unknown origin) (444 to 876 residues) expressed in baculovirus infected Sf9 insect cells incubated for 1 hr by TR-FRET assay
[13] = target: Serine/threonine-protein kinase 32B (Homo sapiens, UniProt Q9NY57); experiment: Binding affinity to recombinant full-length N-terminal His-FLAG-GST-tagged STK32B (unknown origin) expressed in baculovirus infected Sf9 insect cells incubated for 1 hr by TR-FRET assay
[14] = target: Serine/threonine-protein kinase SIK2 (Homo sapiens, UniProt Q9H0K1); experiment: Binding affinity to recombinant full-length N-terminal His-FLAG-GST-tagged SIK2 (unknown origin) expressed in baculovirus infected Sf9 insect cells incubated for 1 hr by TR-FRET assay
[15] = target: Protein kinase C beta type (Homo sapiens, UniProt P05771); experiment: Binding affinity to recombinant full-length N-terminal His-FLAG-tagged PRKCB (unknown origin) expressed in baculovirus infected Sf9 insect cells incubated for 1 hr by TR-FRET assay
[16] = target: Mitogen-activated protein kinase kinase kinase 7 (Homo sapiens, UniProt O43318); experiment: Binding affinity to recombinant full-length N-terminal His-FLAG-tagged MAP3K7 (unknown origin) expressed in baculovirus infected Sf9 insect cells incubated for 1 hr by TR-FRET assay
[17] = target: Mitogen-activated protein kinase kinase kinase 11 (Homo sapiens, UniProt Q16584); experiment: Binding affinity to recombinant N-terminal His-FLAG-GST-tagged MAP3K11 (unknown origin) (99 to 398 residues) expressed in baculovirus infected Sf9 insect cells incubated for 1 hr by TR-FRET assay
[18] = target: Tyrosine-protein kinase ABL2 (Homo sapiens, UniProt P42684); experiment: Binding affinity to recombinant full-length N-terminal His-FLAG-GST-tagged ABL2 (unknown origin) (2 to 52 and 74 to 1182 residues) expressed in baculovirus infected Sf9 insect cells incubated for 1 hr by TR-FRET assay
[19] = target: Macrophage colony-stimulating factor 1 receptor (Homo sapiens, UniProt P07333); experiment: Binding affinity to recombinant N-terminal His-FLAG-GST-tagged CSF1R (unknown origin) (538 to 972 residues) expressed in baculovirus infected Sf9 insect cells incubated for 1 hr by TR-FRET assay
[20] = target: Serine/threonine-protein kinase 17A (Homo sapiens, UniProt Q9UEE5); experiment: Binding affinity to recombinant full length N-terminal His-FLAG-GST-tagged STK17A (unknown origin) expressed in baculovirus infected Sf9 insect cells incubated for 1 hr by TR-FRET assay
[21] = target: Fibroblast growth factor receptor 2 (Homo sapiens, UniProt P21802); experiment: Binding affinity to recombinant N-terminal His-FLAG-GST-tagged FGFR2 (unknown origin) (399 to 821 residues) expressed in baculovirus infected Sf9 insect cells incubated for 1 hr by TR-FRET assay
[22] = target: Fibroblast growth factor receptor 3 (Homo sapiens, UniProt P22607); experiment: Binding affinity to recombinant N-terminal His-FLAG-GST-tagged FGFR3 (unknown origin) (436 to 806 residues) expressed in baculovirus infected Sf9 insect cells incubated for 1 hr by TR-FRET assay
[23] = target: MAP kinase-interacting serine/threonine-protein kinase 2 (Homo sapiens, UniProt Q9HBH9); experiment: Binding affinity to recombinant human full-length N-terminal GST-tagged MKNK2 expressed in baculovirus expression system using RS peptide as substrate incubated for 1 hr by TR-FRET assay
[24] = target: CDK7/Cyclin H/MNAT1 (Homo sapiens, UniProt P50613); experiment: Binding affinity to recombinant human full length N-terminal GST-tagged and N-terminal GST-tagged CDK7/cyclinH/MAT1 expressed in baculovirus expression system using CTD3 peptide as substrate incubated for 1 hr by TR-FRET assay
Sequence of CDK7/Cyclin H/MNAT1 (P51946 whole entry): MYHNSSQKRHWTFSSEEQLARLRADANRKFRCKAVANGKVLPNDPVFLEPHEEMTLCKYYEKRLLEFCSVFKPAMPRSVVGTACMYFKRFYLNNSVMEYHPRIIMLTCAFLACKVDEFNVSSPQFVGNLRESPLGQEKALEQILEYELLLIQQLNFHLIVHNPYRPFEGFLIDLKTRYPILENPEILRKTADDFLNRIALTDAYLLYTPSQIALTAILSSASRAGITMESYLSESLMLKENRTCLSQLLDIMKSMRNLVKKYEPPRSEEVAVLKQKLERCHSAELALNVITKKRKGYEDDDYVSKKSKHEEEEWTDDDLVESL
Sequence of CDK7/Cyclin H/MNAT1 (P50613 whole entry): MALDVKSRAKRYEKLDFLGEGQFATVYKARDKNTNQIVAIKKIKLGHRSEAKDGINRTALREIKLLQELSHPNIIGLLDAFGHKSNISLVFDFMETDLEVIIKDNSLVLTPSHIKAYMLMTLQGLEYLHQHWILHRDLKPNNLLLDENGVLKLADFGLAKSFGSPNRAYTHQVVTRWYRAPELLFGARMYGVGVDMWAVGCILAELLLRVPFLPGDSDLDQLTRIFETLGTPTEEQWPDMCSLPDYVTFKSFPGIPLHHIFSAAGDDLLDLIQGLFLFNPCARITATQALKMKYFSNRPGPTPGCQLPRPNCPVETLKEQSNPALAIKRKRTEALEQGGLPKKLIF
Sequence of CDK7/Cyclin H/MNAT1 (P51948 whole entry, further chain): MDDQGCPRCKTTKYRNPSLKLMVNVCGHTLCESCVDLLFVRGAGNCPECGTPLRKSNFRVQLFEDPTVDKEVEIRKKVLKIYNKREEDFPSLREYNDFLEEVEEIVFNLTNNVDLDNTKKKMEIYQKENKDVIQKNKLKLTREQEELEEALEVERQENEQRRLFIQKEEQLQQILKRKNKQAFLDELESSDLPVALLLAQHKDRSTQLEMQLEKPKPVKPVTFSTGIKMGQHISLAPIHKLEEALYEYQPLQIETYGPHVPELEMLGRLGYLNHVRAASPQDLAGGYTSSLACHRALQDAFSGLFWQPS

Sequence of NUAK family SNF1-like kinase 1 (O60285 whole entry, the tested form may be a part): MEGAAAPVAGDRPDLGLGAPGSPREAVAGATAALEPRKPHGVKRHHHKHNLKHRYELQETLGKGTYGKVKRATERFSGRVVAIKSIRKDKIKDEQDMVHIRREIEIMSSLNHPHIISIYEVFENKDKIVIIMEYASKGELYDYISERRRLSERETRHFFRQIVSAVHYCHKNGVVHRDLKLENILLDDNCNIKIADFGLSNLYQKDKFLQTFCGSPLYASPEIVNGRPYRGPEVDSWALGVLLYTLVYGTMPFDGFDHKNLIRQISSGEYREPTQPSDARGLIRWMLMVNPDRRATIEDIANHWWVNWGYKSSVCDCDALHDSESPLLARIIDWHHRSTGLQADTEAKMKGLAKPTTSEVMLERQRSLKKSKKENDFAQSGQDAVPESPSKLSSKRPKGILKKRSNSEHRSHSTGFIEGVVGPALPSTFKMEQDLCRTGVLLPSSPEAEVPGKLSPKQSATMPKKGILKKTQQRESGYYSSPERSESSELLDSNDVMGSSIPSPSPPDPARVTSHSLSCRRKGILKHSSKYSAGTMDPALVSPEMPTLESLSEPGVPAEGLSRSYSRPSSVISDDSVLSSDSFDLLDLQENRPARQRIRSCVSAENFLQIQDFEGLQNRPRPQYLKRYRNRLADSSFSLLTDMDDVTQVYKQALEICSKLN
Sequence of MAP kinase-interacting serine/threonine-protein kinase 2 (Q9HBH9 whole entry): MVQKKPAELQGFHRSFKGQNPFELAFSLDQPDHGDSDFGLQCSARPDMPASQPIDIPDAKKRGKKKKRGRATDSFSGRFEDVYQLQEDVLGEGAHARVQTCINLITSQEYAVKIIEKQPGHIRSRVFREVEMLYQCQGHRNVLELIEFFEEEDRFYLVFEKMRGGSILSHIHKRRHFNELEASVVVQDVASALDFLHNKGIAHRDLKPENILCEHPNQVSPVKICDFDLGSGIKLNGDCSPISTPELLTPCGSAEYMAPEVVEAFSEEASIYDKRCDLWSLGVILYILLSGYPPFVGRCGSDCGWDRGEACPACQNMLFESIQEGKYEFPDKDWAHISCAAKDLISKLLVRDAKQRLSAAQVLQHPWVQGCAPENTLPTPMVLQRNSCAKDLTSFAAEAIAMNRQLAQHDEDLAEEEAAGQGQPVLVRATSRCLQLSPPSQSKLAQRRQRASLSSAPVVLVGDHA
Sequence of Serine/threonine-protein kinase ULK3 (Q6PHR2 whole entry): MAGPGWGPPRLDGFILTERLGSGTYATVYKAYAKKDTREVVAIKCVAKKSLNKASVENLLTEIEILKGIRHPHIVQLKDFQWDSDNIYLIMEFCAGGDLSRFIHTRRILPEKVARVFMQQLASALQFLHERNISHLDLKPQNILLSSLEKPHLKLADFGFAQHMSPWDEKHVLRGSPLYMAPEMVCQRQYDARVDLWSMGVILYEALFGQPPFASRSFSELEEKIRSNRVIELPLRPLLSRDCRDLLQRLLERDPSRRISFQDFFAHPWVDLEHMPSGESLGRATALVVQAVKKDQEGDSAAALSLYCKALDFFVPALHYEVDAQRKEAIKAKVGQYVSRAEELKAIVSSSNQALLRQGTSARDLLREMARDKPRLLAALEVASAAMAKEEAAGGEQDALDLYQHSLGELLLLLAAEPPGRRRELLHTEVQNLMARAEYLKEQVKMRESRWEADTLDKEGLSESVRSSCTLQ
Sequence of Macrophage colony-stimulating factor 1 receptor (P07333 whole entry, the tested form may be a part): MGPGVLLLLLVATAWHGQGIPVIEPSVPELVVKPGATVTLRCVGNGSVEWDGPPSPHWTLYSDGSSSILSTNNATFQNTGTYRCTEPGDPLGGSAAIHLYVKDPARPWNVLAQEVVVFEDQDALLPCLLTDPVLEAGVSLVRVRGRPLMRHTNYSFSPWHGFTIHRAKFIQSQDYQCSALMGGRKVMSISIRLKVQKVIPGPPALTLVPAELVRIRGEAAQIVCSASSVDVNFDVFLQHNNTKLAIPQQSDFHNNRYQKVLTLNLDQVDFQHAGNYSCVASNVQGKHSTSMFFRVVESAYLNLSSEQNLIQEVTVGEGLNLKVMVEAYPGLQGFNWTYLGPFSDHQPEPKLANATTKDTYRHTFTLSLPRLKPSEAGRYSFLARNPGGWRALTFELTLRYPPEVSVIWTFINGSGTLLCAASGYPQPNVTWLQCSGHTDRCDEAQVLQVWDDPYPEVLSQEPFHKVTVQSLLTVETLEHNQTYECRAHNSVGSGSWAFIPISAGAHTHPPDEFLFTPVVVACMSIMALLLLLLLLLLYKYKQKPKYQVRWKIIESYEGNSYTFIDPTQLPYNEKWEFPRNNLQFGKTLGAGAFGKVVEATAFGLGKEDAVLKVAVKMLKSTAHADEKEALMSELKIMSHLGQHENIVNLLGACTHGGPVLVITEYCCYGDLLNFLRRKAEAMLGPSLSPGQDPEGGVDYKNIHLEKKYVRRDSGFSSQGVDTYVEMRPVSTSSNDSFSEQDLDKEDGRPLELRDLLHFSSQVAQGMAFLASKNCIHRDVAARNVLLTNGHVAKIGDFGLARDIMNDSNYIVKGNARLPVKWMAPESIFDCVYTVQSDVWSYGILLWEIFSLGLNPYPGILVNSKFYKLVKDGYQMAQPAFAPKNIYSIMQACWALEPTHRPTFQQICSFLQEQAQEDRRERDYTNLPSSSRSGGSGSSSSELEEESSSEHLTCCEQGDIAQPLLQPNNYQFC
Sequence of Mitogen-activated protein kinase kinase kinase kinase 1 (Q92918 whole entry, the tested form may be a part): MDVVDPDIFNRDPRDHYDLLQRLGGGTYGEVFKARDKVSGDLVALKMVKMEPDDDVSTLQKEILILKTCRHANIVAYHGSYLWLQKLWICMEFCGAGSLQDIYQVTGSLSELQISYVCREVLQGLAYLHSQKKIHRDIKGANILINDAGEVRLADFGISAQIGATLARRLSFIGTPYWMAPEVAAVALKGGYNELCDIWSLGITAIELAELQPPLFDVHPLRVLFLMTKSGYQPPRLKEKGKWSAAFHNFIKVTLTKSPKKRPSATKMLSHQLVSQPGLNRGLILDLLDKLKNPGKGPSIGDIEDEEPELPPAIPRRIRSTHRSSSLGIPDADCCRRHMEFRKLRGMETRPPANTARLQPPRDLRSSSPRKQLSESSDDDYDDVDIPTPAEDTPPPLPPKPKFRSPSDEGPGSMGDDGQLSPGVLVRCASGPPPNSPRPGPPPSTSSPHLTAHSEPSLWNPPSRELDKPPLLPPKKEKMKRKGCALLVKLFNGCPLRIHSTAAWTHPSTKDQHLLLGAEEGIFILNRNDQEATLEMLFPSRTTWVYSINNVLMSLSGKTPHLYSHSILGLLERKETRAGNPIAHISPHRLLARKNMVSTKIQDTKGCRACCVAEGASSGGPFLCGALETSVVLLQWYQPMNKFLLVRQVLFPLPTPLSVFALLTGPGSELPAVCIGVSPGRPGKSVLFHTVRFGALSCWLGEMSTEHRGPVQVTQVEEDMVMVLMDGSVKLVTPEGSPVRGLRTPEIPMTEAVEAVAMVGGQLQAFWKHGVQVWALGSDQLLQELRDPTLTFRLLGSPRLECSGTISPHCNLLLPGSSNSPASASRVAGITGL
Sequence of Serine/threonine-protein kinase 17A (Q9UEE5 whole entry, the tested form may be a part): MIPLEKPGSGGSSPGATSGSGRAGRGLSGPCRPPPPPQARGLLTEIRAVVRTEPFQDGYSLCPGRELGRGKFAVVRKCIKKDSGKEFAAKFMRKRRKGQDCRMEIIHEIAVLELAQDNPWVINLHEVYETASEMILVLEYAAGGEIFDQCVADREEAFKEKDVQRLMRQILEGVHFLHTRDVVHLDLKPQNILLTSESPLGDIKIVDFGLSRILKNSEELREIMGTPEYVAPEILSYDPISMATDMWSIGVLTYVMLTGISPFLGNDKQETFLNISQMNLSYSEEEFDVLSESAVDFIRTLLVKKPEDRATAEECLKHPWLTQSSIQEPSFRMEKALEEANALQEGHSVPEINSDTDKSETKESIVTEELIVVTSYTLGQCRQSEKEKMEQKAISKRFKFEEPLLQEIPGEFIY

SMILES	Kd [1] [nM]	Kd [2] [nM]	Kd [3] [nM]	Kd [4] [nM]	Kd [5] [nM]	Kd [6] [nM]	Kd [7] [nM]	Kd [8] [nM]	Kd [9] [nM]	Kd [10] [nM]	Kd [11] [nM]	Kd [12] [nM]	Kd [13] [nM]	Kd [14] [nM]	Kd [15] [nM]	Kd [16] [nM]	Kd [17] [nM]	Kd [18] [nM]	Kd [19] [nM]	Kd [20] [nM]	also measured
CO[C@@H]1[C@H](NCCOCCOCCOCCNC(=O)CCC2=[N+]3C(=Cc4c(C)cc(C)n4[B-]3(F)F)C=C2)C[C@H]2O[C@]1(C)n1c3ccccc3c3c4c(c5c6ccccc6n2c5c31)C(=O)NC4	28	259	329	749	17	8	16	15	14	90	41	674	446	4	65	44	3	531	279	258	Kd [21]: 242 nM; Kd [22]: 409 nM; Kd [23]: 162 nM; Kd [24]: 894 nM
CO[C@@H]1[C@H](N(C)CCOCCOCCOCCNC(=O)CCC2=[N+]3C(=Cc4c(C)cc(C)n4[B-]3(F)F)C=C2)C[C@H]2O[C@]1(C)n1c3ccccc3c3c4c(c5c6ccccc6n2c5c31)C(=O)NC4	19	125	213	537	24	8	14	13	13	81	15	888	984	3	17	60	4	947	324	367	Kd [21]: 361 nM; Kd [22]: 848 nM; Kd [23]: 205 nM; Kd [24]: 819 nM
